Experimental data: the NIST ThermoML archive (doi:10.1016/j.tca.2009.04.012)
Numbers after ± are expanded uncertainties.

Experiments:
[1] = for mass density: 298.15 K, 101.33 kPa; for Normal melting temperature: DTA
[2] = molar heat capacity at constant pressure; settings: 298.15 K, 101.33 kPa, Small sample (50 mg) DSC
[3] = Molar enthalpy of transition or fusion; settings: Crystal; DSC

Row | SMILES | mass density ([1]; Liquid) [kg/m3] | molar heat capacity at constant pressure ([2]; Liquid) [J/K/mol] | Normal melting temperature ([1]; Crystal) [°C] | Molar enthalpy of transition or fusion [3] [kcal/mol] | molar heat capacity at constant pressure ([2]; Crystal) [J/K/mol] | mass density ([1]; Crystal) [kg/m3]
1 | CC(=O)c1cccs1 [2-acetylthiophene] | 1171 ± 5 | 210.72 ± 10 | – | – | – | –
2 | CC(=O)c1ccc[nH]1 [2-acetylpyrrole] | – | – | 89.82 ± 0.4 | 3.37 ± 0.263 | 132.04 ± 6.5 | –
3 | CC(=O)c1ccco1 [2-acetylfuran] | – | – | 28.47 ± 0.4 | 3.71 ± 0.165 | 140.94 ± 6.6 | 1098 ± 5
